Reference: ChEMBL document CHEMBL2163222 (J Med Chem, 2012)
Calls of active or inactive are those of the source. No cut-off for these calls is given here.

What was measured:
cells = details: Homo sapiens, U373 MG, 72 h
NCI-H460 = assay: Growth inhibition of human NCI-H460 cells at 10 uM by NCI-60 cell inhibition assay; type: functional; details: read-out: GI
IGROV-1 = assay: Growth inhibition of human IGROV1 cells at 10 uM by NCI-60 cell inhibition assay; type: functional; details: read-out: GI
SNB-75 = assay: Growth inhibition of human SNB75 cells at 10 uM by NCI-60 cell inhibition assay; type: functional; details: read-out: GI
NCI-H226 = assay: Growth inhibition of human NCI-H226 cells at 10 uM by NCI-60 cell inhibition assay; type: functional; details: read-out: GI
T47D = assay: Growth inhibition of human T47D cells at 10 uM by NCI-60 cell inhibition assay; type: functional; details: read-out: GI
HCC 2998 = assay: Growth inhibition of human HCC2998 cells at 10 uM by NCI-60 cell inhibition assay; type: functional; details: read-out: GI
SF-268 = assay: Growth inhibition of human SF268 cells at 10 uM by NCI-60 cell inhibition assay; type: functional; details: read-out: GI
K562 = assay: Growth inhibition of human K562 cells at 10 uM by NCI-60 cell inhibition assay; type: functional; details: read-out: GI
EKVX = assay: Growth inhibition of human EKVX cells at 10 uM by NCI-60 cell inhibition assay; type: functional; details: read-out: GI
NCI-H322M = assay: Growth inhibition of human NCI-H322M cells at 10 uM by NCI-60 cell inhibition assay; type: functional; details: read-out: GI
OVCAR-5 = assay: Growth inhibition of human OVCAR5 cells at 10 uM by NCI-60 cell inhibition assay; type: functional; details: read-out: GI
HT-29 = assay: Growth inhibition of human HT-29 cells at 10 uM by NCI-60 cell inhibition assay; type: functional; details: read-out: GI
SN12C = assay: Growth inhibition of human SN12C cells at 10 uM by NCI-60 cell inhibition assay; type: functional; details: read-out: GI
[1] = Inhibition of eIF2 protein expression in human U373 cells at 0.5 uM after 4 hrs by Western blotting method; type: functional, cell-based; details: U-373MG ATCC
TK-10 = assay: Growth inhibition of human TK10 cells at 10 uM by NCI-60 cell inhibition assay; type: functional; details: read-out: GI
ACHN = assay: Growth inhibition of human ACHN cells at 10 uM by NCI-60 cell inhibition assay; type: functional; details: read-out: GI
MDA-MB-231 = assay: Growth inhibition of human MDA-MB-231 cells at 10 uM by NCI-60 cell inhibition assay; type: functional; details: read-out: GI
Malme-3M = assay: Growth inhibition of human MALME-3M cells at 10 uM by NCI-60 cell inhibition assay; type: functional; details: read-out: GI
MCF7 = assay: Growth inhibition of human MCF7 cells at 10 uM by NCI-60 cell inhibition assay; type: functional; details: read-out: GI
UACC-257 = assay: Growth inhibition of human UACC257 cells at 10 uM by NCI-60 cell inhibition assay; type: functional; details: read-out: GI
T98G = assay: cells; details: Homo sapiens, 72 h
HOP-62 = assay: Growth inhibition of human HOP62 cells at 10 uM by NCI-60 cell inhibition assay; type: functional; details: read-out: GI
OE33 = assay: Growth inhibition of human OE33 cells after 3 days by MTT assay; type: functional, cell-based; details: OE33, 72 h
PC-3 = assay: Growth inhibition of human PC3 cells at 10 uM by NCI-60 cell inhibition assay; type: functional; details: read-out: GI
[2] = Growth inhibition of human NCI-ADR-RES cells at 10 uM by NCI-60 cell inhibition assay; type: functional; details: read-out: GI
786-0 = assay: Growth inhibition of human 786-0 cells at 10 uM by NCI-60 cell inhibition assay; type: functional; details: read-out: GI
MOLT-4 = assay: Growth inhibition of human MOLT4 cells at 10 uM by NCI-60 cell inhibition assay; type: functional; details: read-out: GI
KM12 = assay: Growth inhibition of human KM12 cells at 10 uM by NCI-60 cell inhibition assay; type: functional; details: read-out: GI
CAKI-1 = assay: Growth inhibition of human Caki1 cells at 10 uM by NCI-60 cell inhibition assay; type: functional; details: read-out: GI
SW-620 = assay: Growth inhibition of human SW620 cells at 10 uM by NCI-60 cell inhibition assay; type: functional; details: read-out: GI
[3] = Growth inhibition of human […] cells at 10 uM by NCI-60 cell inhibition assay; type: functional; details: read-out: GI
MDA-MB-468 = assay: Growth inhibition of human MDA-MB-468 cells at 10 uM by NCI-60 cell inhibition assay; type: functional; details: read-out: GI
[4] = Solubility of compound at pH 7.4; type: physicochemical; details: buffer, read-out: solubility
Hs 683 = assay: Inhibition of eIF2 activity in human Hs683 cells at 0.5 uM after 4 hrs by Western blotting method; type: functional, cell-based
UACC-62 = assay: Growth inhibition of human UACC62 cells at 10 uM by NCI-60 cell inhibition assay; type: functional; details: read-out: GI
A549 = assay: Growth inhibition of human A549/ATCC cells at 10 uM by NCI-60 cell inhibition assay; type: functional; details: read-out: GI
SNB-19 = assay: Growth inhibition of human SNB19 cells at 10 uM by NCI-60 cell inhibition assay; type: functional; details: read-out: GI
CCRF-CEM = assay: Growth inhibition of human CCRF-CEM cells at 10 uM by NCI-60 cell inhibition assay; type: functional; details: read-out: GI
[5] = Inhibition of eIF2 protein expression in human Hs683 cells at 0.5 uM after 4 hrs by Western blotting method; type: functional, cell-based; details: Hs 683
NCI-H522 = assay: Growth inhibition of human NCI-H522 cells at 10 uM by NCI-60 cell inhibition assay; type: functional; details: read-out: GI
SK-MEL-28 = assay: Growth inhibition of human SK-MEL-28 cells at 10 uM by NCI-60 cell inhibition assay; type: functional; details: read-out: GI
SK-MEL-2 = assay: Growth inhibition of human SK-MEL-2 cells at 10 uM by NCI-60 cell inhibition assay; type: functional; details: read-out: GI
SK-MEL-5 = assay: Growth inhibition of human SK-MEL-5 cells at 10 uM by NCI-60 cell inhibition assay; type: functional; details: read-out: GI
NCI-H23 = assay: Growth inhibition of human NCI-H23 cells at 10 uM by NCI-60 cell inhibition assay; type: functional; details: read-out: GI
SR = assay: Growth inhibition of human SR cells at 10 uM by NCI-60 cell inhibition assay; type: functional; details: read-out: GI
[6] = Cytostatic activity in human U373 cells at 0.4 uM assessed global growth ratio after 72 hrs by quantitative video microscopy; type: functional, U-373MG ATCC
SF-539 = assay: Growth inhibition of human SF539 cells at 10 uM by NCI-60 cell inhibition assay; type: functional; details: read-out: GI
DU-145 = assay: Growth inhibition of human DU145 cells at 10 uM by NCI-60 cell inhibition assay; type: functional; details: read-out: GI
UO-31 = assay: Growth inhibition of human UO31 cells at 10 uM by NCI-60 cell inhibition assay; type: functional; details: read-out: GI
[7] = Stability in cell culture medium without serum assessed as compound recovery after 72 hrs; type: physicochemical; details: read-out: Stability
SF-295 = assay: Growth inhibition of human SF295 cells at 10 uM by NCI-60 cell inhibition assay; type: functional; details: read-out: GI

Cc1c2c(cc[n+]1Cc1ccccc1)c1ccc(OCC3CCCCC3)cc1n2CC1CCCCC1.[Br-]
IC50 (cells): 370 nM
inhibition of growth at 10 µM (NCI-H460): -93.4%
inhibition of growth at 10 µM (IGROV-1): -70.6%
inhibition of growth at 10 µM (SNB-75): -87.3%
inhibition of growth at 10 µM (NCI-H226): -89.1%
inhibition of growth at 10 µM (T47D): -74.1%
inhibition of growth at 10 µM (HCC 2998): -93.2%
inhibition of growth at 10 µM (SF-268): -98.7%
inhibition of growth at 10 µM (K562): -45.9%
inhibition of growth at 10 µM (EKVX): -75.5%
inhibition of growth at 10 µM (NCI-H322M): -83.2%
inhibition of growth at 10 µM (OVCAR-5): -95.5%
inhibition of growth at 10 µM (HT-29): -79%
inhibition of growth at 10 µM (SN12C): -91.9%
inhibition [1]: inactive
inhibition of growth at 10 µM (TK-10): -93.6%
inhibition of growth at 10 µM (ACHN): -100%
inhibition of growth at 10 µM (MDA-MB-231): -92%
inhibition of growth at 10 µM (Malme-3M): -70.3%
inhibition of growth at 10 µM (MCF7): -92.3%
inhibition of growth at 10 µM (UACC-257): -92.4%
IC50 (T98G): 160 nM
inhibition of growth at 10 µM (HOP-62): -95%
IC50 (OE33): 370 nM
inhibition of growth at 10 µM (PC-3): -75.8%
inhibition of growth at 10 µM [2]: 31.5%
inhibition of growth at 10 µM (786-0): -91.3%
inhibition of growth at 10 µM (MOLT-4): -64.5%
inhibition of growth at 10 µM (KM12): -99.9%
inhibition of growth at 10 µM (CAKI-1): -92.5%
inhibition of growth at 10 µM (SW-620): -96.6%
inhibition of growth at 10 µM [3]: -45.2%
inhibition of growth at 10 µM (MDA-MB-468): -86.6%
solubility [4]: 123 µM
inhibition (Hs 683): inactive
inhibition of growth at 10 µM (UACC-62): -94%
inhibition of growth at 10 µM (A549): -93.1%
inhibition of growth at 10 µM (SNB-19): -90.7%
inhibition of growth at 10 µM (CCRF-CEM): -36.2%
inhibition [5]: inactive
inhibition of growth at 10 µM (NCI-H522): -84.5%
inhibition of growth at 10 µM (SK-MEL-28): -95.8%
inhibition of growth at 10 µM (SK-MEL-2): -86.5%
inhibition of growth at 10 µM (SK-MEL-5): -100%
inhibition of growth at 10 µM (NCI-H23): -76.7%
inhibition of growth at 10 µM (SR): -57.6%
Ratio [6]: 0.25
inhibition of growth at 10 µM (SF-539): -85.2%
inhibition of growth at 10 µM (DU-145): -100%
inhibition of growth at 10 µM (UO-31): -93.1%
remaining at 72 h [7]: > 95%
inhibition of growth at 10 µM (SF-295): -92.8%
